US11241441B2, “Formulations of lixivaptan for the treatment of polycystic disease” (PALLADIO BIOSCIENCES, INC., priority 2017, dated 2022)
Where two headings read alike, the source gives them in different places.

Tests used:
[1] = Single 100 mg oral dose study in ESRD and normal renal function subjects: pharmacokinetics and tolerability; type: in vivo, human; conditions: for AUC(0-inf) / AUC(0-t) / Cmax / Vd/F / half-life: po, 100 mg; for Vd/F: read-out: VZ/F Mean; for half-life: read-out: t1/2 Median (converted)
Experimental: A clinical study was undertaken to determine the pharmacokinetics (PK) of lixivaptan in renally impaired subjects. In this study, the PK of lixivaptan following a single 100 mg oral dose of lixivaptan was evaluated in subjects with end-stage renal disease (ESRD) and control subjects with normal renal function. Pharmacodynamic (PD) evaluations, including vasopressin concentration, serum sodium concentration, urine volume, and urine osmolality were assessed. Overall total lixivaptan exposure was, on average, 32 and 31% lower in ESRD subjects compared to subjects with normal renal function, as assessed by AUC0-∞ and AUC0-t, respectively. Similarly, peak total lixivaptan concentrations were, on average, 31% lower in subjects with ESRD.

[2] = In-clinic pharmacokinetic study: plasma pharmacokinetics and dose proportionality; type: in vivo, human; conditions: 100 mg to 400 mg administered as 2 divided doses
Experimental: The primary objective of this study was to assess the pharmacokinetics and dose proportionality of lixivaptan over the dose range targeted for clinical use (e.g., 100 to 400 mg daily) using unit doses of 50 mg and multiples thereof given twice daily for 7.5 days.
Subjects received lixivaptan at total daily doses of 100 mg, 200 mg, or 400 mg (administered as 50, 100, and 200 mg Q12H). Subjects were to be enrolled into the study in two cohorts of 30 subjects, but actual cohort numbers were 23 and 34 subjects. Of the 57 subjects enrolled in the study, 27 were female (47.4%) and 30 were male (52.6%). The majority of subjects were White (35/57, 61.4%) and of Hispanic or Latino ethnicity (46/57, 80.7%). The overall mean age of subjects in the study was 33.6 (8.31) years, and the overall mean body mass index for subjects was 26.2 (3.79). There were to be approximately 20 subjects enrolled per dose level. An approximately equal number of males and females were enrolled at each dose level such that neither gender was represented by fewer than 8 subjects. The starting date for each cohort subjects was staggered by 7 days for logistical purposes. Screening evaluations were performed within 28 days prior to Day 1. […]

vasopressin V2 receptor = target: T1, vasopressin V2 receptor (Homo sapiens, UniProt P30518); experiment: In-clinic pharmacokinetic study: spot urine osmolality after twice daily lixivaptan; type: in vivo
T1 construct: Lixivaptan antagonizes the effects of vasopressin that are mediated by the V2 receptor; from tissue; host or cells: living human subjects (in vivo clinical studies); the receptor is the subjects' own and no tissue was isolated
T1 sequence (P30518 whole entry): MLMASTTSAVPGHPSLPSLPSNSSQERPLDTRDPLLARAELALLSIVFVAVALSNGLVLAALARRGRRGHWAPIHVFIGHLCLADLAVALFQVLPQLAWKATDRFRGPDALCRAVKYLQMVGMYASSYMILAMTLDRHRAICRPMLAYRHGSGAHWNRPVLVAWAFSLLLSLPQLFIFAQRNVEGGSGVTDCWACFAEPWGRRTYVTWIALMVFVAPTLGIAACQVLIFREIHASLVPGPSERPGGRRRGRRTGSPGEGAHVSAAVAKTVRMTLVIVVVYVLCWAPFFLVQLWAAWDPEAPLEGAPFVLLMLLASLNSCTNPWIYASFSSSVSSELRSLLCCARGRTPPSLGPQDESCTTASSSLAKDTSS
Experimental: Subjects received lixivaptan at total daily doses of 100 mg, 200 mg, or 400 mg (administered as 50, 100, and 200 mg Q12H). […] There were to be approximately 20 subjects enrolled per dose level. An approximately equal number of males and females were enrolled at each dose level such that neither gender was represented by fewer than 8 subjects. The starting date for each cohort subjects was staggered by 7 days for logistical purposes. Screening evaluations were performed within 28 days prior to Day 1.
The following doses of lixivaptan were administered to subjects in this study: (a) Lixivaptan 100 mg, administered as 50 mg [1×50 mg capsule] every 12 hours×15 doses; (b) lixivaptan 200 mg, administered as 100 mg [2×50 mg capsules] every 12 hours×15 doses; and (c) Lixivaptan 400 mg, administered as 200 mg [4×50 mg capsules] every 12 hours×15 doses.
Prior to the morning doses of lixivaptan on Days 1 and 8, subjects fasted for approximately 10 hours prior to lixivaptan administration and 4 hours after lixivaptan administration. All other doses were administered under fasting conditions, either 2 hours before or 2 hours after meals. The study medication was administered with 240 milliliters (mL) room temperature water. Subjects were not to receive any oral fluids, other than those used to administer the dose, for 1 hour before and 1 hour after dose administration. Subjects remained sitting or semi-supine, except to void, for 6 hours following the first two doses. While in the clinic, the subjects refrained from strenuous physical activity.
Spot urine collections for urine osmolality determinations were obtained during the clinic stay and at the end of study (EOS).
Spot urine osmolality was evaluated at different times during the day.

[3] = human, in vivo, single 100 mg oral dose, ESRD
[4] = human, in vivo, single 100 mg oral dose, Normal
[5] = single 100 mg oral dose, Normal

Cc1ccc(F)cc1C(=O)Nc1ccc(C(=O)N2Cc3cccn3Cc3ccccc32)c(Cl)c1 [Lixivaptan, 5-fluoro-2-methyl-N-[4-(5H-pyrrolo[2,1-C] [1,4]benzodiazepin-10(11H)-ylcarbonyl)-3-chlorophenyl]benzamide]
tolerability of single doses ([1]; both groups (normal, ESRD)): well tolerated | AUC(0-inf) [1, 3]: 856 ng·h/mL | AUC(0-t) [1, 3]: 809 ng·h/mL | Cmax [1, 3]: 238 ng/mL | Vd/F [1, 3]: 2740 L | half-life [1, 3]: 13.3 h | AUC(0-t) [1, 4]: 1200 ng·h/mL | Cmax [1, 4]: 383 ng/mL | AUC(0-inf) ([1]; human, in vivo, single 100 mg oral dose, Normal renal function): 1290 ng·h/mL | Vd/F [1, 4]: 1750 L | half-life [1, 4]: 12 h | Tmax ([1]; human, in vivo, single 100 mg oral dose, Normal, read-out: tmax Median): 1 h | peak total lixivaptan concentrations lower in subjects with ESRD ([1]; single 100 mg oral dose): 31% | total lixivaptan exposure (AUC0-t) lower in ESRD subjects compared to normal renal function ([1]; single 100 mg oral dose): 31% | total lixivaptan exposure (AUC0-∞) lower in ESRD subjects compared to normal renal function ([1]; single 100 mg oral dose): 32% | CL/F Mean ([1]; single 100 mg oral dose, ESRD): 137 L/h | Lambdaz Median ([1]; single 100 mg oral dose, ESRD): 0.05752 h⁻¹ | CL/F Mean [1, 5]: 94.2 L/h | Lambdaz Median [1, 5]: 0.06035 h⁻¹ | dose proportionality of pharmacokinetic parameters (Cmax, AUC(0-12)) [2]: proportional kinetics | % of subjects with full 24 hour suppression of Uosm to 300 mOsm/kg or lower (vasopressin V2 receptor; 50 mg lixivaptan twice daily): approximately 16% | Urine Osmolality Mean (vasopressin V2 receptor; 100 mg as 50 mg Q12H, Day 1 Hour 1): 250.9 mOsm/kg | Urine Osmolality Mean (vasopressin V2 receptor; 100 mg as 50 mg Q12H, Day 1 Hour 2): 79.8 mOsm/kg | Urine Osmolality Mean (vasopressin V2 receptor; 100 mg as 50 mg Q12H, Day 1 Hour 4): 150.6 mOsm/kg | Urine Osmolality Mean (vasopressin V2 receptor; 100 mg as 50 mg Q12H, Day 1 Hour 12): 378.7 mOsm/kg | Urine Osmolality Mean (vasopressin V2 receptor; 100 mg as 50 mg Q12H, Day 8 Hour 0): 464.7 mOsm/kg | Urine Osmolality Mean (vasopressin V2 receptor; 100 mg as 50 mg Q12H, Day 8 Hour 1): 222.5 mOsm/kg | Urine Osmolality Mean (vasopressin V2 receptor; 100 mg as 50 mg Q12H, Day 8 Hour 2): 139.1 mOsm/kg | Urine Osmolality Mean (vasopressin V2 receptor; 100 mg as 50 mg Q12H, Day 8 Hour 4): 274.3 mOsm/kg | Urine Osmolality Mean (vasopressin V2 receptor; 100 mg as 50 mg Q12H, Day 8 Hour 12): 447.4 mOsm/kg | Urine Osmolality Mean (vasopressin V2 receptor; 100 mg as 50 mg Q12H, Day 9 Hour 24 after dosing): 564.7 mOsm/kg | Urine Osmolality Mean (vasopressin V2 receptor; 100 mg as 50 mg Q12H, EOS (end of study, Day 29)): 805.5 mOsm/kg | % of subjects with full 24 hour suppression of Uosm to 300 mOsm/kg or lower (vasopressin V2 receptor; 100 mg twice daily): approximately 46% | Urine Osmolality Mean (vasopressin V2 receptor; 200 mg as 100 mg Q12H, Day 1 Hour 1): 285.9 mOsm/kg | Urine Osmolality Mean (vasopressin V2 receptor; 200 mg as 100 mg Q12H, Day 1 Hour 2): 76.9 mOsm/kg | Urine Osmolality Mean (vasopressin V2 receptor; 200 mg as 100 mg Q12H, Day 1 Hour 4): 136.5 mOsm/kg | Urine Osmolality Mean (vasopressin V2 receptor; 200 mg as 100 mg Q12H, Day 1 Hour 12): 369.9 mOsm/kg | Urine Osmolality Mean (vasopressin V2 receptor; 200 mg as 100 mg Q12H, Day 8 Hour 0): 323.6 mOsm/kg | Urine Osmolality Mean (vasopressin V2 receptor; 200 mg as 100 mg Q12H, Day 8 Hour 1): 156.7 mOsm/kg | Urine Osmolality Mean (vasopressin V2 receptor; 200 mg as 100 mg Q12H, Day 8 Hour 2): 93.9 mOsm/kg | Urine Osmolality Mean (vasopressin V2 receptor; 200 mg as 100 mg Q12H, Day 8 Hour 4): 186.7 mOsm/kg | Urine Osmolality Mean (vasopressin V2 receptor; 200 mg as 100 mg Q12H, Day 8 Hour 12): 334.7 mOsm/kg | Urine Osmolality Mean (vasopressin V2 receptor; 200 mg as 100 mg Q12H, Day 9 Hour 24 after dosing): 465.9 mOsm/kg | Urine Osmolality Mean (vasopressin V2 receptor; 200 mg as 100 mg Q12H, EOS (end of study, Day 29)): 694.1 mOsm/kg | % of subjects with full 24 hour suppression of Uosm to 300 mOsm/kg or lower (% responders) (vasopressin V2 receptor; 200 mg twice daily): approximately 78% | Urine Osmolality Mean (vasopressin V2 receptor; 400 mg as 200 mg Q12H, Day 1 Hour 1): 237.4 mOsm/kg | Urine Osmolality Mean (vasopressin V2 receptor; 400 mg as 200 mg Q12H, Day 1 Hour 2): 74.5 mOsm/kg | Urine Osmolality Mean (vasopressin V2 receptor; 400 mg as 200 mg Q12H, Day 1 Hour 4): 91.0 mOsm/kg | Urine Osmolality Mean (vasopressin V2 receptor; 400 mg as 200 mg Q12H, Day 1 Hour 12): 294.1 mOsm/kg | Urine Osmolality Mean (vasopressin V2 receptor; 400 mg as 200 mg Q12H, Day 8 Hour 0): 231.0 mOsm/kg | Urine Osmolality Mean (vasopressin V2 receptor; 400 mg as 200 mg Q12H, Day 8 Hour 1): 106.9 mOsm/kg | Urine Osmolality Mean (vasopressin V2 receptor; 400 mg as 200 mg Q12H, Day 8 Hour 2): 82.3 mOsm/kg | Urine Osmolality Mean (vasopressin V2 receptor; 400 mg as 200 mg Q12H, Day 8 Hour 4): 139.1 mOsm/kg | Urine Osmolality Mean (vasopressin V2 receptor; 400 mg as 200 mg Q12H, Day 8 Hour 12): 219.5 mOsm/kg | Urine Osmolality Mean (vasopressin V2 receptor; 400 mg as 200 mg Q12H, Day 9 Hour 24 after dosing): 390.3 mOsm/kg | Urine Osmolality Mean (vasopressin V2 receptor; 400 mg as 200 mg Q12H, EOS (end of study, Day 29)): 704.8 mOsm/kg | time of mean maximal reduction of urine osmolality (vasopressin V2 receptor; after first dose on Day 1 and Day 8, regardless of the dose): 2 h | Urine Osmolality Mean (vasopressin V2 receptor; healthy subjects, 100 mg as 50 mg Q12H, Day 1 Hour 0 (baseline)): 587.8 mOsm/kg | Urine Osmolality Mean (vasopressin V2 receptor; healthy subjects, 200 mg as 100 mg Q12H, Day 1 Hour 0 (baseline)): 602.7 mOsm/kg | Urine Osmolality Mean (vasopressin V2 receptor; healthy subjects, 400 mg as 200 mg Q12H, Day 1 Hour 0 (baseline)): 600.1 mOsm/kg
